Data as given in PMC10607100, “Anticancer and Antiphytopathogenic Activity of Fluorinated Isatins and Their Water-Soluble Hydrazone Derivatives” (International Journal of Molecular Sciences, 2023).
Read-outs that look alike come from different tables or passages of the source.

Experiments:
[1] = test system: Pseudomonas fluorescens EL-2.1; experiment: Agar-well diffusion, bactericidal activity; format: cell-based; settings: Pseudomonas fluorescens, EL2.1, 2 mM/L
Procedure, shortened: (§1)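 Bacteria spread on agar (BP medium; GYCa for X. campestris; pH 7.2–7.4) with 6-mm wells, each receiving 150 μL compound solution. Cultures grown at 28 °C; growth-inhibition zone width measured after 36–40 h.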

[2] = test system: Pectobacterium atrosepticum 1043; experiment: Agar-well diffusion, bactericidal activity; format: cell-based; settings: Pectobacterium atrosepticum, 1043, 2 mM/L
Procedure, shortened: as §1

[3] = test system: Micrococcus luteus B-109; experiment: Agar-well diffusion, bactericidal activity; format: cell-based; settings: Micrococcus luteus
Procedure, shortened: as §1

[4] = test system: Pectobacterium carotovorum subsp. carotovorum MI; experiment: Agar-well diffusion, bactericidal activity; format: cell-based; settings: Pectobacterium carotovorum, 2 mM/L
Procedure, shortened: as §1

[5] = test system: Phytophthora cactorum VKM F-985; experiment: Mycelial radial growth inhibition; format: cell-based; settings: Phytophthora cactorum; for inhibition of growth at 1 µM: 1 nmol/mL; for inhibition of growth at 1 µM / inhibition of growth at 5 µM / inhibition of growth at 15 µM / inhibition of growth / inhibition of growth at 40 µM: read-out: Inhibition value, I (%); for inhibition of growth at 5 µM: 5 nmol/mL; for inhibition of growth at 15 µM: 15 nmol/mL; for inhibition of growth: 27 nmol/mL; for inhibition of growth at 40 µM: 40 nmol/mL
Procedure, shortened: (§2)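 Compounds mixed into molten GPY agar at various concentrations; centre inoculated with a 5-mm mycelial plug from 10-day cultures and incubated at 27 °C. Colony diameter compared with untreated control until control plate was covered (usually 12 days); ≥4 replicates in two experiments.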

[6] = test system: Fusarium oxysporum IBPPM 543; experiment: Mycelial radial growth inhibition; format: cell-based; settings: Fusarium oxysporum; for inhibition of growth at 1 µM: 1 nmol/mL; for inhibition of growth at 1 µM / inhibition of growth at 5 µM / inhibition of growth at 20 µM / inhibition of growth at 40 µM: read-out: Inhibition value, I (%); for inhibition of growth at 5 µM: 5 nmol/mL; for inhibition of growth at 20 µM: 20 nmol/mL; for inhibition of growth at 40 µM: 40 nmol/mL
Procedure, shortened: as §2

[7] = test system: Xanthomonas campestris B-610; experiment: Agar-well diffusion, bactericidal activity; format: cell-based; settings: Xanthomonas campestris
Procedure, shortened: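 Agar-well diffusion on GYCa agar (pH 7.2–7.4) seeded with bacterial suspension; 150 μL compound solution placed in 6-mm wells. Inhibition zone width measured after 36–40 h incubation.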

[8] = test system: five representative phytopathogens; experiment: Agar-well diffusion, bactericidal activity over the panel of phytopathogens; format: cell-based
Procedure, shortened: as §1

[9] = Table S3, read-out: Inhibition zone width (mm), not less
[10] = 120 h, age of the fungus 5 days
[11] = 168 h, age of the fungus 7 days
[12] = 216 h, age of the fungus 9 days
[13] = IBPPM543, 72 h, age of the fungus 3 days
[14] = IBPPM543, 120 h, age of the fungus 5 days
[15] = IBPPM543, 168 h, age of the fungus 7 days
[16] = IBPPM543, 216 h, age of the fungus 9 days

With `O=C(C[n+]1ccccc1)NN=C1C(=O)N(Cc2c(F)c(F)c(F)c(F)c2F)c2ccc(F)cc21.[Cl-]` [Compound 5d, 1-(2-(2-(5-Fluoro-2-oxo-1-((perfluorophenyl)methyl)indolin-3-ylidene)hydrazinyl)-2-oxoethyl)pyridin-1-ium chloride] the zone of inhibition at 2000 µM ([1]; average of 3 experiments, read-out: width of the inhibition zone (mm), Ps. fluorescens) was 2 mm, the zone of inhibition at 2000 µM [1, 9] was no less than 2 mm and the zone of inhibition at 2000 µM ([2]; average of 3 experiments, read-out: width of the inhibition zone (mm), P. atrosepticum) was 4 mm. The zone of inhibition at 2000 µM [2, 9] was no less than 4 mm, the zone of inhibition at 2000 µM ([3]; B109, 2 mM/L, average of 3 experiments, read-out: width of the inhibition zone (mm), M. luteus) was 3 mm and the zone of inhibition at 2000 µM ([3]; B109, Table S3, 2 mM/L, read-out: Inhibition zone width (mm), not less) was no less than 3 mm. For the same molecule, the zone of inhibition at 2000 µM ([4]; average of 3 experiments, read-out: width of the inhibition zone (mm), P. carotovorum subsp. carotovorum) was 4 mm, the zone of inhibition at 2000 µM [4, 9] was no less than 4 mm and the inhibition of growth at 1 µM ([5]; 72 h, age of the fungus 3 days) was 15%. For the same molecule, the inhibition of growth at 5 µM ([5]; 72 h, age of the fungus 3 days) was 20%, the inhibition of growth at 15 µM ([5]; 72 h, age of the fungus 3 days) was 26% and the inhibition of growth ([5]; 72 h, age of the fungus 3 days) was 28%. The inhibition of growth at 40 µM ([5]; 72 h, age of the fungus 3 days) was 35%, the EC50 ([5]; 120 h, day 5, read-out: EC50, µg/mL at Day 5, P. cactorum) was 24.7 µg/mL and the inhibition of growth at 1 µM [5, 10] was 12%. For the same molecule, the inhibition of growth at 5 µM [5, 10] was 19%, the inhibition of growth at 15 µM [5, 10] was 28% and the inhibition of growth [5, 10] was 32%. For the same molecule, the inhibition of growth at 40 µM [5, 10] was 43%, the inhibition of growth at 1 µM [5, 11] was 10% and the inhibition of growth at 5 µM [5, 11] was 16%. The inhibition of growth at 15 µM [5, 11] was 23%, the inhibition of growth [5, 11] was 25% and the inhibition of growth at 40 µM [5, 11] was 33%. The inhibition of growth at 1 µM [5, 12] was 8%, the inhibition of growth at 5 µM [5, 12] was 11% and the inhibition of growth at 15 µM [5, 12] was 13%. The inhibition of growth [5, 12] was 22%, the inhibition of growth at 40 µM [5, 12] was 29% and the inhibition of growth at 1 µM [6, 13] was 9%. It also gave an inhibition of growth at 5 µM [6, 13] of 33%, an inhibition of growth at 20 µM [6, 13] of 35% and an inhibition of growth at 40 µM [6, 13] of 49%. For the same molecule, the EC50 ([6]; IBPPM543, 120 h, day 5, read-out: EC50, µg/mL at Day 5, F. oxysporum) was 17.4 µg/mL, the inhibition of growth at 1 µM [6, 14] was 10% and the inhibition of growth at 5 µM [6, 14] was 24%. For the same molecule, the inhibition of growth at 20 µM [6, 14] was 37%, the inhibition of growth at 40 µM [6, 14] was 54% and the inhibition of growth at 1 µM [6, 15] was 10%. For the same molecule, the inhibition of growth at 5 µM [6, 15] was 23%, the inhibition of growth at 20 µM [6, 15] was 32% and the inhibition of growth at 40 µM [6, 15] was 41%. For the same molecule, the inhibition of growth at 1 µM [6, 16] was 0%, the inhibition of growth at 5 µM [6, 16] was 16% and the inhibition of growth at 20 µM [6, 16] was 18%. For the same molecule, the inhibition of growth at 40 µM [6, 16] was 36%, the zone of inhibition at 2000 µM ([7]; B610, 2 mM/L, average of 3 experiments, read-out: width of the inhibition zone (mm), X. campestris) was 4 mm and the zone of inhibition at 2000 µM ([7]; B610, Table S3, 2 mM/L, read-out: Inhibition zone width (mm), not less) was no less than 4 mm. The melting point was 165 to 166 °C, the zone of inhibition at 2000 µM ([8]; 36 h, 2 mM solutions, dependent on the test system used, read-out: inhibition zone width (mm), range over the test systems) was 2 to 4 mm and the “bactericidal activity” value ([8]; Table S2) was “moderate bactericidal activity”.
